# Legend:
# [1] = test system: human MHC class II molecules; conditions: human B cell line under stress (nutrient deprivation); peptide of the same sequence; cited from earlier work
# [2] = test system: primed spleen and draining lymph node cells; assay: T-cell proliferation (tritium incorporation) of peptide-pool primed spleen and draining lymph node cells re-stimulated in vitro with individual peptides; assay type: cell-based, Balb/c mice; conditions: mice immunized with peptide pools, in vitro re-stimulation with the individual peptide
# Excerpt: (§1) To define the epitopes more precisely, we divided the 13 peptides, based on the degree of sequence identity between bacterial and the homologous mouse Hsp70s, in three pools (pool A: non-conserved peptides, pool B: conserved peptides comprising at least about 80% amino acid identity to the mouse homologue, and pool C: highly conserved peptides comprising >86% amino acid identity to the mouse homologue, see below) and immunized 10-12 weeks old Balb/c mice twice with a 2 week interval (intraperitoneally and subcutaneously) with the peptide pools. 10 days after the second immunization primed spleen and draining lymph node cells were re-stimulated in vitro with all the 13 individual peptides after which we measured T-cell proliferation (tritium incorporation), IFNγ, IL10, IL4 and IL5 production (cytokine production).
# [3] = test system: primed spleen and draining lymph node cells; assay: Cytokine production (IFNγ, IL10, IL4, IL5) of peptide-pool primed spleen and draining lymph node cells re-stimulated in vitro; assay type: cell-based, Balb/c mice; conditions: mice immunized with peptide pools; in vitro re-stimulation with the individual peptide
# Excerpt: as §1
# [4] = test system: bacterially primed T-cells; assay: Cross reactivity of bacterial peptide primed T cells with corresponding mouse homologue peptides; assay type: cell-based, Balb/c mice; conditions: proliferation and cytokine production
# Excerpt: To test cross-reactivity, i.e. the capacity of selected peptides to induce T cells cross-reactive with homologous self-proteins, the following method can be used (see also Examples):
# Any sign of activation (see above) can be taken as an indication of cross-reactivity of the test (e.g. microbial) epitope with the self protein/peptide. Initial testing can be carried out with a synthetic peptide based on the sequence of the self protein/peptide, but final proof for cross-reactivity with the protein/peptide itself, either in isolated form or expressed on cells, is preferably obtained in T cell activation tests with (stressed) antigen presenting cells (over)expressing and presenting the self HSP-peptide, in order to exclude cryptic epitopes.
# as §1
Sequence,elution from human MHC class II molecules [1],T-cell proliferation response [2],IFN-gamma [3],IL-10 [3],Cross-reactivity of bacterially primed T-cells with mouse homologue peptide [4]
VLRIINEPTAAAIAY (listed as Mus musculus) [mC1b],eluted from human MHC class II molecules,–,–,–,–
VLRIVNEPTAAALAY (listed as Mycobacterium tuberculosis) [Peptide C1],–,increased,increased,augmented,induced cross reactive T cell responses and yes
"DEVVAVGAALQAGVL (listed as Mycobacterium tuberculosis) [Peptide B1, mycobacterial hsp70 peptide, pool B (conserved)]",–,increased,increased,No,induced cross reactive T cell responses and Yes
"KPFQSVIADTGISVS (listed as Mycobacterium tuberculosis) [Peptide A1, mycobacterial hsp70 peptide, pool A (not conserved)]",–,increased,increased,augmented,no

# Reference: patent publication US20090118173A1, “TREATMENT AND PREVENTION OF INFLAMMATORY BOWEL DISEASES” (priority 2006, published 2009)
